# Tests used:
# HL60 MDR tumor = HL60 MDR tumor implanted in nude mice, tumor volume; assay type: in vivo
# Source text: Tumor implantation. Mice were purchased from the Animal Production Program of National Cancer Institute, Frederick, Md. The animals used were Athymic Ncr-nu/nu (strain code 01B74). HL60 MDR cells were harvested and reconstituted at 1 million cells per 100 microliters of phosphate buffered saline. One million tumor cells per injection site were implanted subcutaneously on two sites of the animal's back. Treatments began at exactly seven days post tumor implantation. Tumor size/volume was monitored twice weekly using measurement calipers, with the formula Tumor Volume=π×(short diameter)^2×(long diameter)/6.
# Mice experiments with fatty acid metabolism and glycolytic inhibitors. Fatty acid metabolism inhibitors were exemplified by etomoxir at 200 micrograms/day. Glycolytic inhibitors were exemplified by 2-deoxy-D-glucose at 2.5 mM in 100 microliters daily. The combination was administered daily, etomoxir at 200 micrograms and 2-deoxy-D-glucose at 2.5 mM in 100 microliters. All drugs were administered intra-peritoneally. 5-Fluoro-uracil, at 20 mg per kilogram mouse, was injected intra-peritoneally once a week
# HL60 MDR human leukemia cells were cultured and implanted in nude mice as described above under “Materials and Methods”. The mice were given 200 ug of Etomoxir, 2.5 mM 2-Deoxy-D-glucose, or both 200 ug of Etomoxir and 2.5 mM 2-Deoxy-D-glucose given daily by IP injection. Treatment began exactly one week after tumor implantation.
# [1] = system: RD cells (rhabdomyosarcoma cells); experiment: percent death of RD cells by flow cytometry; assay type: cell-based
# Experimental: (§1) Dot plots as a function of live versus dead cells. The cells were cultured at a concentration of 0.5 to 1 million cells per ml. Cells were untreated or treated with etomoxir or 2-deoxy-D-glucose at a concentration of 2.5 mM at the indicated concentrations for either 24 or 48 hours. In additional experiments, under each of these culture conditions, the cells were cultured for 24 hours at which time point, polyclonal anti-UCP-2 was added at a 1:1000 dilution of stock provided by Alpha Diagnostics, San Antonio, Tex. Cells were harvested and analyzed by flow cytometry. Each dot on the dot plots of FIGS. 1, 3, 5, 7, 9, and 11 represents one cell. Five thousand cells were assessed for forward scatter (FS), as a function of cell size, versus side scatter (SS), as a function of cellular granularity. The upper ellipse represents live cells by these criterion and the lower ellipse in each dot plot represents the dead cells.
# (§2) Statistical Analysis, Percents, and Geometric Mean Values Percents. Gating is a tool provided by Cell Quest software and allows for the analysis of a certain population of cells. Gating around both the live and dead cell populations gave a percent of the cell numbers that was in each population. After the gates were drawn, a percent value of dead cells was calculated by taking the number of dead cells divided by the number of total cells and multiplying by one hundred.
# Referring to FIGS. 29 and 30, RD cells (rhabdomyosarcoma cells—not drug resistant), cultured as described above under “Materials and Methods” were untreated or treated with etomoxir, with 2-deoxy-D-glucose, or with a combination of etomoxir and 2-deoxy-D-glucose, at concentrations indicated in FIG. 29 for 24 hours. Cells were harvested and analyzed by flow cytometry. […] The percent of cell deaths for RD cells after 24 hours was: (a) 31% when untreated, (b) 57% when treated with etomoxir alone, (c) 46% when treated with 2-deoxy-D-glucose alone, and (d) 66% when treated with the combination of etomoxir and 2-deoxy-D-glucose.
# Referring to FIGS. 33 and 34, RD cells, cultured as described in Example 22, were untreated or treated with etomoxir, with 2-deoxy-D-glucose, or with a combination of etomoxir and 2-deoxy-D-glucose, at concentrations indicated in FIG. 33 for 48 hours. Cells were harvested and analyzed by flow cytometry. […] The percent of cell deaths for RD cells after 48 hours was: (a) 36% when untreated, (b) 64% when treated with etomoxir alone, (c) 63% when treated with 2-deoxy-D-glucose alone, and (d) 68% when treated with the combination of etomoxir and 2-deoxy-D-glucose.
# HL60 MDR cells [2] = experiment: % death of HL60 MDR cells by flow cytometry; assay type: cell-based, human; conditions: for HL60 MDR % Death: Table 1, 25 ug/mL Cerulenin
# Experimental: as §1, §2
# (§3) This example illustrates an embodiment of the invention, where multi-drug resistant cancer cells were exposed to compositions of the invention. Analysis of the cells was performed using flow cytometry. The flow cytometry experiments were performed as follows. The cells were harvested, counted, and resuspended as described above. For DNA staining, the cells were washed and resuspended in ice-cold PBS and fixed by the dropwise addition of 95% ethanol. The cells were then incubated for 30 minutes on ice, washed, and resuspended in PBS containing 1% formaldehyde and 0.01% Tween. The cells were incubated with 50 units of DNAse and washed with PBS containing 5% DNAse. The cells were then incubated with anti DNA Fab (166, kind gift of Dr. Susan Wallace, University of Vermont), then washed and stained with a fluorescein conjugated second step anti-mouse immunoglobulin. The cells were then washed and resuspended in PBS/3% BSA/1% formaldehyde. The cells were stained for intracellular H2O2 using 6-carboxy-2′,7′-dichlorodihydrofluorescein diacetate (DCF-DA, Molecular Probes, Eugene, Oreg.). The cells were incubated with 1 mM DCF-DA for 20 minutes, washed twice in PBS containing 5% fetal calf serum and analyzed using flow cytometry. The mitochondrial membrane potential was assessed using MitoTracker Red (CM-H2XROS, Molecular Probes, Eugene, Oreg.). The cells were resuspended in warm (37° C.) PBS containing a final concentration of 0.5 micromolar of dye. The cells were then incubated for 30 minutes, pelleted, and resuspended in prewarmed medium for analysis. The data was acquired on a Coulter Elite Epics or Excel flow cytometer (Coulter, Hialeah, Fla.) and analyzed with CellQuest software, (Becton Dickinson, San Jose, Calif.). […] Each sample population was classified for cell size (forward scatter) and complexity (side scatter), gated on a population of interest and evaluated using 40,000 cells. Each figure describing flow cytometric data represents one of at least four replicate experiments.
# All cell lines in this example were cultured in RPMI 1640 culture medium. The medium was supplemented with 5% fetal bovine serum (“FBS”), 2 mM L-Glutamine, 500 units/mL pennicillin/500 micrograms/mL of streptomycin, 10 mM HEPES Buffer, 10^−5 M 2-mercaptoethanol (“2-ME”), 1 mM MEM Sodium Pyruvate, and 0.04 micrograms/mL of Gentamicin (All reagents from Gibco BRL). The cells were maintained at 37° C. in a humidified atmosphere under 5% CO2 in air using standard cell culture techniques known to those of ordinary skill in the art. […]
# L1210 cells = experiment: % death of L1210 cells by flow cytometry; assay type: cell-based; conditions: Table 2; 25 ug/mL Cerulenin; 7.0 Hours
# Experimental: as §2
# (§4) This example illustrates an embodiment of the invention, where multi-drug resistant cancer cells were exposed to compositions of the invention. Analysis of the cells was performed using flow cytometry. The flow cytometry experiments were performed as follows. The cells were harvested, counted, and resuspended as described above. […] The cells were incubated with 1 mM DCF-DA for 20 minutes, washed twice in PBS containing 5% fetal calf serum and analyzed using flow cytometry. The mitochondrial membrane potential was assessed using MitoTracker Red (CM-H2XROS, Molecular Probes, Eugene, Oreg.). […] The data was acquired on a Coulter Elite Epics or Excel flow cytometer (Coulter, Hialeah, Fla.) and analyzed with CellQuest software, (Becton Dickinson, San Jose, Calif.). […] Each sample population was classified for cell size (forward scatter) and complexity (side scatter), gated on a population of interest and evaluated using 40,000 cells. […]
# HL60 cells [3] = experiment: % death of HL60 cells by flow cytometry; assay type: cell-based, human; conditions: Table 1, 25 ug/mL Cerulenin
# Experimental: as §2, §4
# B16F1 melanoma cells [4] = experiment: B16F1 melanoma cells exposed to cerulenin, then injected into male mice; assay type: in vivo
# Experimental: Highly carcinogenic B16F1 melanoma cells were either exposed (“treated”) or not exposed to cerulenin, then injected into male mice.
# Day 0 @2:45 pm injected with B16F1 10^6 cells in PBS, Treatment w/25 ug/ml cerulenin 5.0 hrs
# Day 0 injected w/B16F1 10^6 cells in PBS, Treatment w/25 ug/ml cerulenin 5.0 h
# Day 0 @2:45 pm injected w/B16F1 (10^6 cells in PBS) Treatment w/25 ug/ml cerulenin 5 h
# HL60 MDR cells [5] = experiment: microscopy images of HL60 MDR cells treated with cerulenin; assay type: cell-based, human; conditions: FIGS. 4E and 4F
# Source text: (§5) In FIG. 4, microscopy images of HL60 and HL60 MDR (“multi-drug resistant”) cells treated with cerulenin (“Treated”) and not treated with cerulenin (“No Stn”) are shown.
# HL60 cells [6] = experiment: microscopy images of HL60 cells treated with cerulenin; assay type: cell-based, human; conditions: FIG. 4C
# Source text: as §5
# B16F1 melanoma cells [7] = experiment: % death of B16F1 cells by flow cytometry; assay type: cell-based
# Experimental: as §2, §3
# All cell lines in this example were cultured in RPMI 1640 culture medium. The medium was supplemented with 5% fetal bovine serum (“FBS”), 2 mM L-Glutamine, 500 units/mL pennicillin/500 micrograms/mL of streptomycin, 10 mM HEPES Buffer, 10^−5 M 2-mercaptoethanol (“2-ME”), 1 mM MEM Sodium Pyruvate, and 0.04 micrograms/mL of Gentamicin (All reagents from Gibco BRL). The cells were maintained at 37° C. in a humidified atmosphere under 5% CO2 in air using standard cell culture techniques known to those of ordinary skill in the art.
# The flow cytometry experiments were performed as follows. Once the samples were prepared and transferred into flow cytometric tubes, the samples were analyzed on a Becton/Dickinson Flow Cytometer. For antibodies that were PE conjugated and for the MitoTracker Red experiments, a program for red-colored fluorochromes was utilized. […] Statistical analysis, percents, and geometric mean values percents were calculated as described above.
# L1210 DDP cells = experiment: % death of L1210 DDP cells by flow cytometry; assay type: cell-based; conditions: for L1210 DDP % Death: Table 2, 25 ug/mL Cerulenin
# Experimental: as §2
# as §4, with “above. For DNA staining, the cells were washed and resuspended in ice-cold PBS and fixed by the dropwise addition of 95% ethanol. The cells were then incubated for 30 minutes on ice, washed, and resuspended in PBS containing 1% formaldehyde and 0.01% Tween. The cells were incubated with 50 units of DNAse and washed with PBS containing 5% DNAse.” for “above.”
# The flow cytometry experiments were performed as follows. Once the samples were prepared and transferred into flow cytometric tubes, the samples were analyzed on a Becton/Dickinson Flow Cytometer. […] Statistical analysis, percents, and geometric mean values percents were calculated as described above.
smiles,measurement,setting,value
O=CC[C@@H](O)[C@H](O)[C@H](O)CO [2-deoxy-D-glucose],tumor growth versus control,"HL60 MDR tumor; 21 day period, single agent",increase in tumor growth
same,"tumor volume, Day 7","HL60 MDR tumor; Day 7 after implantation (start of treatment), 200 ug Etomoxir and/or 2.5 mM 2-Deoxy-D-glucose daily IP",35 mm^3
same,"tumor volume, Day 9","HL60 MDR tumor; Day 9, 200 ug Etomoxir and/or 2.5 mM 2-Deoxy-D-glucose daily IP",51.56 mm^3
same,"tumor volume, Day 15","HL60 MDR tumor; Day 15, 200 ug Etomoxir and/or 2.5 mM 2-Deoxy-D-glucose daily IP",158.55 mm^3
same,"tumor volume, Day 21","HL60 MDR tumor; Day 21, 200 ug Etomoxir and/or 2.5 mM 2-Deoxy-D-glucose daily IP","1,181.61 mm^3"
same,percent of cell deaths,"[1]; 24 hours, concentrations as in FIG. 29",46%
same,percent of cell deaths,"[1]; 48 hours, concentrations as in FIG. 33",63%
same,percent of cell deaths,"HL60 MDR cells [2]; HL60 MDR, 24 hours, 2-deoxy-D-glucose at 2.5 mM, etomoxir as in FIG. 27",16%
same,percent of cell deaths,"HL60 MDR cells [2]; HL60 MDR, 48 hours, concentrations as in FIG. 31",38%
"C/C=C/C/C=C/CCC(=O)[C@H]1O[C@H]1C(N)=O [Cerulenin, cerulenin]",L1210 % Death,L1210 cells,27%
same,HL60 % Death,HL60 cells [3]; 2.0 Hours,11%
same,HL60 % Death,HL60 cells [3]; 24 Hours,44%
same,development of lethal cancers,B16F1 melanoma cells [4]; male mice injected with B16F1 cells treated with 25 ug/ml cerulenin 5.0 hrs,did not develop lethal cancers
same,"tumor observation, Day 9","B16F1 melanoma cells [4]; single mice (#7, #8, #9), 10^6 B16F1 cells treated w/25 ug/ml cerulenin 5.0 hrs, Day 9",no visible sign of tumors
same,"tumor observation, Day 12","B16F1 melanoma cells [4]; single mice (#7, #8, #9), 10^6 B16F1 cells treated w/25 ug/ml cerulenin 5.0 hrs, Day 12",no visible tumors
same,"tumor observation, Day 13","B16F1 melanoma cells [4]; single mice (#7, #8, #9), 10^6 B16F1 cells treated w/25 ug/ml cerulenin 5.0 hrs, Day 13",no visible tumors
same,cell death seen in microscopy images,HL60 MDR cells [5],large numbers of cell death
same,cell survival seen in microscopy images,HL60 cells [6],large numbers of the cells survived
same,B16F1 % Death,B16F1 melanoma cells [7]; Table 1; 25 ug/mL Cerulenin; 5.0 Hours,61%
same,B16F1 % Death,B16F1 melanoma cells [7]; Table 1; 25 ug/mL Cerulenin; 24 Hours,90%
same,B16F1 % Death,B16F1 melanoma cells [7]; Table 2; 25 ug/mL Cerulenin; 5.0 Hours,67%
same,B16F1 % Death,B16F1 melanoma cells [7]; Table 2; 25 ug/mL Cerulenin; 24 Hours,72%
same,B16F1 % Death,B16F1 melanoma cells [7]; Table 2; 24 Hours; 25 ug/mL Cerulenin,89%
same,cell death compared to control and non-multidrug resistant cancer cells,"HL60 MDR cells [2]; HL60 MDR, after treatment with cerulenin",greater amounts of cell death
same,HL60 MDR % Death,HL60 MDR cells [2]; 2.0 Hours,13%
same,HL60 MDR % Death,HL60 MDR cells [2]; 24 Hours,99.6%
same,cell death compared to control and non-multidrug resistant cancer cells,"L1210 DDP cells; L1210 DDP, after treatment with cerulenin",greater amounts of cell death
same,L1210 DDP % Death,L1210 DDP cells; 7.0 Hours,14%
same,L1210 DDP % Death,L1210 DDP cells; 24 Hours,92%

# Source: patent US8071645B2, “Systems and methods for treating human inflammatory and proliferative diseases and wounds, with fatty acid metabolism inhibitors and/or glycolytic inhibitors” (The Regents of the University of Colorado, priority 2003, dated 2011)
